From US8252820B2, “1-orthofluorophenyl substituted 1,2,5-thiazolidinedione derivatives as PTP-as inhibitors” (Novartis AG, priority 2005, dated 2012)
Counter-ions that a name gives are not always drawn.

Molecular target: T1, human PTP-1B (Homo sapiens, UniProt P18031)
T1 construct: recombinant human PTP-1B[1-298] or PTP-1B[1-322]
T1 sequence (P18031 1-298 limits assumed): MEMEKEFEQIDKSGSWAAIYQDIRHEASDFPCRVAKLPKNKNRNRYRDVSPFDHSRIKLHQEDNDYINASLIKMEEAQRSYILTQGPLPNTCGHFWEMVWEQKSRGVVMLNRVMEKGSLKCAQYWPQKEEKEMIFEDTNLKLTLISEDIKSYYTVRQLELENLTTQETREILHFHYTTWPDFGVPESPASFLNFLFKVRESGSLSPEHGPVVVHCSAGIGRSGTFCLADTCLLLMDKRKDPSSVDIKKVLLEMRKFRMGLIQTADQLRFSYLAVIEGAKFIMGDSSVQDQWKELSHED
Test: PTP-1B inhibitory activity in vitro (IC50)
Format: biochemical
Settings: inhibitory activity to human PTP-1B
Method: Assessment of human PTP-1B (hPTP-1B) activity in the presence of various agents is determined by measuring the amount of inorganic phosphate released from a phosphopeptide substrate using a 96-well microtiter plate format. The assay (100 μL) is performed in an assay buffer comprised of 50 mM TRIS (pH 7.5), 50 mM NaCl, 3 mM DTT at ambient temperature. The assay is typically performed in the presence of 0.4% dimethyl sulfoxide (DMSO). However, concentrations as high as 10% are used with certain poorly soluble compounds. […] Inorganic phosphate, a product of the enzyme reaction, is quantitiated after 15 min as the green color resulting from complexing with the […] reagent and is determined as an A620 using a Molecular Devices (Sunnyvale, Calif.) SpectraMAX Plus spectrophotometer. […] Activity is defined as the net change in absorbance resulting from the activity of the uninhibited hPTP-1B[1-411] minus that of a tube with acid-inactivated hPTP-1B[1-411]. […] Alternatively, the assessment of human PTP-1B activity in the presence of various agents may be determined by measuring the hydrolysis products of known competing substrates. For example, cleavage of substrate para-nitrophenylphosphate (pNPP) results in the release of the yellow-colored para-nitrophenol (pNP) which can be monitored in real time using a spectrophotometer. […] Absorbance at 405 nm is measured using any standard 384 well plate reader. […]

SMILES	IC50
O=C1CN(c2c(O)cc(CC3CCCCC3)cc2F)S(=O)(=O)N1 [Example No. 13, 5-(4-Cyclohexylmethyl-2-fluoro-6-hydroxyphenyl)-1,1-dioxo-1,2,5-thiadiazolidin-3-one]	0.104 µM
O=C1CN(c2c(O)c(F)cc(F)c2F)S(=O)(=O)N1 [Example No. 26, 1,1-Dioxo-5-(2,3,6-trifluoro-6-hydroxy-phenyl)-1,2,5]thiadiazolidin-3-one potassium salt]	0.158 µM
